Test results from PubChem BioAssay AID2008 (University of Pittsburgh Molecular Library Screening Center, 2009).

Tested on: Leishmania major promastigote growth inhibition
Assay: antileishmanial activity against L. major promastigotes – EC50, dose response (AID 2008)

Row | SMILES | EC50
1 | O=[N+]([O-])c1cc(-c2nnc(C34CC5CC(CC(C5)C3)C4)o2)cc([N+](=O)[O-])c1 | 115 nM
2 | O=[N+]([O-])c1cc([N+](=O)[O-])c2n[nH]c(-c3ccccc3)c2c1 | 402 nM
3 | Cc1c(Cl)sn(-c2ccc(Cl)cc2)c1=O | 545 nM
4 | N=C(N)SCc1cn(-c2ccccc2)nc1-c1ccc(Br)cc1 | 1300 nM
5 | CC(C)(C)c1ccc(C(=O)C2CCCN(C3CCC3)C2)cc1 (stereo unspecified) | 10.7 nM
6 | Nc1nn(-c2ccccc2)c(N)c1N=Nc1ccc2c(c1)OCO2 | 846 nM
7 | COC(=O)c1ccc(COc2ccc(C3C4=C(CCCC4=O)Nc4onc(C)c43)cc2)cc1 (stereo unspecified) | 1540 nM
8 | O=C(COc1ccccc1F)NC1CCN(Cc2ccccc2)CC1 | 140 nM
9 | COc1ccc(-[n+]2c(C)cc(/C=C3\Sc4ccccc4N3C)cc2C)cc1 | < 10 nM
10 | COc1ccc(C(=O)C(CN2CCOCC2)c2ccccc2)cc1F (stereo unspecified) | 2040 nM
11 | Cc1cc(/C=C2\Sc3ccccc3N2C)cc(C)[n+]1CC1CCCO1 (stereo unspecified) | 1 nM
12 | Cn1c(=O)c2nc(-c3ccccc3)oc2c2ccccc21 | 1870 nM
13 | COCCCNCCCCOc1ccc(Br)cc1Cl | 1.73 nM
14 | CCN(CC)CCOC(c1ccccc1)c1ccc(C)cc1 (stereo unspecified) | 1100 nM
15 | Cc1cc(C(=O)CCl)c(C)n1Cc1ccco1 | 783 nM
16 | CCN(CC)C(=S)SSC(=S)N(CC)CC | 263 nM
17 | CCOC(=O)C(=Cc1cc(=O)c(OC)co1)C(=O)OCC | 165 nM
18 | CCN(CC)CCN(C)C1CCC(c2ccccc2)CC1 (stereo unspecified) | 823 nM
19 | CC(C)(C)C1CCC2(CC1)Nc1cccc3cccc(c13)N2 | 1840 nM
20 | O=C1CC(c2ccccc2Br)c2cc3c(cc2N1)CCC3 (stereo unspecified) | 253 nM
21 | COc1cccc2c(=O)c(C/C=C(/C)Cl)c(C)[nH]c12 | 107 nM
22 | Cc1ccc2c(c1)-c1cc(C)nn1C(c1ccc3c(c1)OCO3)N2 (stereo unspecified) | 1590 nM
23 | Cc1[nH]c2c(Cl)cccc2c(=O)c1CN1CCCC1 | 390 nM
24 | O=C1C2CCN(CC2)C1Cc1ccc(OCCOc2ccccc2)cc1 (stereo unspecified) | 272 nM
25 | Cc1nn(-c2nc3ccccc3[nH]2)c(N)c1-c1ccc(Cl)cc1 | 1540 nM
26 | N=C(N)c1ccc(OCCCCCOc2ccc(C(=N)N)cc2)cc1 | 45.1 nM
